Measurements taken from patent US12173018B2, “Penicillin-binding protein inhibitors” (priority 2018, dated 2024).
≈ marks a conversion by molar mass, not a printed value. Read-outs that look alike come from different tables or passages of the source.

Columns and labels:
E. coli PBP3 = E. coli PBP3 (Escherichia coli (strain K12), UniProt P0AD68); assay: E. coli PBP3 Bocillin-FL fluorescence polarization competition binding assay
Outline: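 This was a fluorescence polarization competition with fluorescent penicillin Bocillin-FL (0.1 μM final), read at 490/520 nm for 60 min immediately after its addition. The buffer was Hepes pH 8.0 with 300 mM NaCl and 5% glycerol, containing 1.5 μM PBP and test inhibitor up to 1000 μM. Potency is expressed as EC50 for reducing probe binding.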

N. gonorrhoeae WHO F = assay: Liquid broth MIC, N. gonorrhoeae WHO F; assay type: cell-based; conditions: Neisseria gonorrhoeae; N. gonorrhoeae WHO F, liquid broth; read-out: Minimum Inhibitory Concentration, N. gonorrhoeae WHO F
Method: (§1) Additional antibacterial testing of the series was performed in wild-type reference strains of N. gonorrhoeae (ATCC 49226, FA1090, WHO F and FA19). Liquid broth-based assays were used for antibacterial testing of PBP inhibitors in Neisseria gonorrhoeae. Briefly, cryo-preserved bacterial cultures of clinical strains are streaked for isolation on GC Base agar (BD #228950 at 36 g/L autoclaved at 121° C. for 20 minutes to sterilize) with 1% Kellogg's supplement (40 g glucose, 0.5 g glutamine, 0.05 g ferric nitrate and 2 mg cocarboxylase per 100 mL deionized water filter sterilized through 0.2 μm syringe filters). Following incubation at 36° C. and 5% CO2 to allow growth of colonies, strains are aseptically sub-cultured from original agar plate onto 3 agar plates per strain 24 hours before inoculum preparation. 2-fold serial dilutions of test compounds are conducted in a 96 well plate with a final volume of 150 μL per well at 4/3-fold the final desired concentration. For preparation of assay inoculum, a direct suspension is prepared by aseptically swabbing all colonies from sub-cultured agar plates into culture tubes containing 2 mL of fresh GC broth with […]. After the dilution plates are set up, direct suspensions are then diluted in a cuvette containing GC broth (15 g proteose peptone 43, 1 g corn starch, 4 g dipotassium phosphate, 1 g monopotassium phosphate and 5 g sodium chloride per liter of deionized water are mixed on a stir plate for 20 minutes, pH adjusted to 7.2+/−0.2 pH units with 1 N HCl, centrifuged at 10,000×g for 20 minutes to pellet undissolved corn starch and then autoclaved at 121° C. for 20 minutes to sterilize) and the optical density is measured at 600 nm. Inocula are diluted such that 50 μL of this culture in […] results in a starting bacterial concentration of 5×10^5 CFU/mL when added to the dilution plates. The plates are incubated 40-42 hours at 36° C. and 5% CO2. The MIC is read visually as the lowest concentration well with no bacterial growth.

[1] = system: N. gonorrhoeae ATCC 49226; assay: Liquid broth MIC, N. gonorrhoeae ATCC 49226; assay type: cell-based; conditions: Neisseria gonorrhoeae, ATCC49226; N. gonorrhoeae ATCC 49226, liquid broth; read-out: Minimum Inhibitory Concentration, N. gonorrhoeae ATCC 49226
Method: as §1

N. gonorrhoeae FA1090 = assay: Liquid broth MIC, N. gonorrhoeae FA1090; assay type: cell-based; conditions: Neisseria gonorrhoeae; N. gonorrhoeae FA1090, liquid broth; read-out: Minimum Inhibitory Concentration, N. gonorrhoeae FA1090
Method: as §1

N. gonorrhoeae FA19 = assay: Liquid broth MIC, N. gonorrhoeae FA19; assay type: cell-based; conditions: Neisseria gonorrhoeae; N. gonorrhoeae FA19, liquid broth; read-out: Minimum Inhibitory Concentration, N. gonorrhoeae FA19
Method: as §1

E. coli AG100 = assay: Broth microdilution MIC, E. coli AG100 (wild-type parent); assay type: cell-based; conditions: Escherichia coli; wild-type parent E. coli AG100, broth microdilution; read-out: MIC E. coli AG100
Outline: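 Starting inoculum of 5×10^5 CFU/mL, from colonies grown 3-5 h in Mueller-Hinton broth with divalent cations, added to two-fold compound dilution series.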

E. coli ATCC 25922 = assay: Broth microdilution MIC, E. coli ATCC 25922; assay type: cell-based; conditions: Escherichia coli
Outline: (§2)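 CLSI broth microdilution in cation-supplemented Mueller-Hinton broth; 2-fold compound dilutions inoculated at 5×10^5 CFU/mL from a 3-5 h log-phase culture. Plates incubated 16-20 hours at 37° C; MIC read visually as lowest concentration with no growth.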

E. coli 901C = assay: microbe, parasite or virus in culture; assay type: cell-based; conditions: Escherichia coli; hyper-permeable E. coli 901C, broth microdilution; read-out: MIC E. coli 901C
Outline: as §2

E. coli AG100A = assay: microbe, parasite or virus in culture; assay type: cell-based; conditions: Escherichia coli, read-out: MIC E. coli AG100A
Outline: as §2

K. pneumoniae UMM = assay: microbe, parasite or virus in culture; assay type: cell-based; conditions: Klebsiella pneumoniae; K. pneumoniae UMM producing SHV-5 and KPC-2; read-out: MIC K. pneumoniae UMM
Outline: as §2

[2] = system: engineered strain of Escherichia coli harboring CTX-M15; assay: microbe, parasite or virus in culture; assay type: cell-based; conditions: Escherichia coli, read-out: Microbiological Activity (MIC in mg/L), E. coli DH5α/pLBII-CTX-M15, engineered strain producing CTX-M15
Method: Briefly, cryo-preserved bacterial cultures of challenge strains are streaked for isolation on appropriate agar medium, in this case Mueller Hinton II agar. Following incubation to allow growth of the colonies, plates are sealed with parafilm and stored refrigerated for up to two weeks. For preparation of assay inoculum and to ensure low variability, at least 5 colonies are picked from the agar plates with an inoculating loop and aseptically transferred to a culture tube containing 3 mL of Mueller-Hinton Broth (supplemented with divalent cations to required levels based on Manufacturers' certification). The broth culture is grown for 3-5 hours at 37° C. with shaking at 200 rpm. Meanwhile, 2-fold serial dilutions of test compounds are conducted in a 96 well plate with a final volume of 75 μL per well at 2-fold the final desired concentration. After the dilution plates are set up the growing cultures are then diluted in a cuvette containing MH II broth and the optical density is measured at 600 nm. The Inoculum is diluted such that 75 μL of this culture in Mueller-Hinton Broth results in a starting bacterial concentration of 5×10^5 CFU/mL when added to the dilution plates. The plates are incubated for 16-20 hours at 37° C. The MIC values are read visually as the lowest concentration well with no bacterial growth.
To determine if test compounds were affected by CTX-M15, the most abundant extended spectrum […] in clinical settings worldwide, the inhibition of the growth of an engineered strain of Escherichia coli harboring CTX-M15 was tested. This strain was constructed by cloning the gene encoding CTX-M15 into the NdeI and BamHI restriction endonuclease sites of plasmid pLBII, placing the gene(s) under the control of the Lac promoter. The constructed expression plasmid for CTX-M15 was used to transform competent E. coli DH5α cells to make the engineered strain, including an empty pLBII vector control strain. The classic cell based broth microdilution MIC assay was employed as described above with the addition of control antibiotics, known to be degraded by β-lactamases (Ceftazidime, piperacillin and piperacillin+tazobactam).

K. pneumoniae 848844 = assay: microbe, parasite or virus in culture; assay type: cell-based, Klebsiella pneumoniae; conditions: Klebsiella pneumoniae; K. pneumoniae 848844 producing SHV-11 and KPC-2; read-out: MIC K. pneumoniae 848844
Outline: as §2

E. coli D22 = assay: microbe, parasite or virus in culture; assay type: cell-based; conditions: Escherichia coli; hyper-permeable E. coli D22, broth microdilution; read-out: MIC E. coli D22
Outline: as §2

K. pneumoniae SI-117 = assay: microbe, parasite or virus in culture; assay type: cell-based; conditions: Klebsiella pneumoniae, SI117, read-out: MIC K. pneumoniae SI-117
Outline: as §2

[3] = fluorescence polarization competition binding with Bocillin-FL, read-out: E. coli K12 PBP3 Potency

E. coli PBP3, sequence (P0AD68 whole entry): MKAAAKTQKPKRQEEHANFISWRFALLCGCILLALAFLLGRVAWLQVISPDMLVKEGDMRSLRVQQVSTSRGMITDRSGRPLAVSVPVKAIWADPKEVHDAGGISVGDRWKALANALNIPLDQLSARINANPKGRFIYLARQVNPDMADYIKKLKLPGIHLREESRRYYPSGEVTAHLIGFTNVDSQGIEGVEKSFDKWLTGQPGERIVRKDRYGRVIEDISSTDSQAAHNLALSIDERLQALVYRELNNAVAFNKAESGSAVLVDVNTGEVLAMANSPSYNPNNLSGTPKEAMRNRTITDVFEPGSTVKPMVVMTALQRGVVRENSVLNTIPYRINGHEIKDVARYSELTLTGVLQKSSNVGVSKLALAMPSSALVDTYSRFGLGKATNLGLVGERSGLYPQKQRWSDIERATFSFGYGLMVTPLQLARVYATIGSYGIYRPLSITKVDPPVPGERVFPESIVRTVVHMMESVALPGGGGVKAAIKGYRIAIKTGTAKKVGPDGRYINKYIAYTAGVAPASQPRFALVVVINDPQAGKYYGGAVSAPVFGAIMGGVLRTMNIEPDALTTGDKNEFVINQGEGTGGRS

SMILES	EC50 (E. coli PBP3)	MIC (N. gonorrhoeae WHO F)	MIC [1]	MIC (N. gonorrhoeae FA1090)	MIC (N. gonorrhoeae FA19)	EC50 (E. coli PBP3; [3])	MIC [2]	also measured
CCN1CCN(C(=O)NC(C(=O)N[C@H]2Cc3ccc(F)c(C(=O)O)c3OB2O)c2cnc(N)s2)C(=O)C1=O (stereo partly drawn) [Example 152, (3R)-3-(2-(2-aminothiazol-5-yl)-2-(4-ethyl-2,3-dioxopiperazine-1-carboxamido)acetamido)-7-fluoro-2-hydroxy-3,4-dihydro-2H-benzo[e][1,2]oxaborinine-8-carboxylic acid]	30 to 500 µM	0.25 to 0.5 µg/mL (≈ 0.456 to 0.912 µM)	1 to 2 µg/mL (≈ 1.82 to 3.65 µM)	0.25 to 0.5 µg/mL (≈ 0.456 to 0.912 µM)	1 to 2 µg/mL (≈ 1.82 to 3.65 µM)	–	–	–
CCN1CCN(C(=O)NC(C(=O)N[C@H]2Cc3cccc(C(=O)O)c3OB2O)c2ccsc2)C(=O)C1=O (stereo partly drawn) [Example 137, (3R)-3-(2-(4-ethyl-2,3-dioxopiperazine-1-carboxamido)-2-(thiophen-3-yl)acetamido)-2-hydroxy-3,4-dihydro-2H-benzo[e][1,2]oxaborinine-8-carboxylic acid]	30 to 500 µM	< 0.125 µg/mL	1 to 2 µg/mL (≈ 1.94 to 3.89 µM)	< 0.125 µg/mL	4 to 8 µg/mL (≈ 7.78 to 15.6 µM)	–	–	–
Nc1ncc(C(NC(=O)N2CCN(CCF)C(=O)C2=O)C(=O)N[C@H]2Cc3ccc(F)c(C(=O)O)c3OB2O)s1 (stereo partly drawn) [Example 153, (3R)-3-(2-(2-aminothiazol-5-yl)-2-(4-(2-fluoroethyl)-2,3-dioxopiperazine-1-carboxamido)acetamido)-7-fluoro-2-hydroxy-3,4-dihydro-2H-benzo[e][1,2]oxaborinine-8-carboxylic acid]	30 to 500 µM	0.25 to 0.5 µg/mL (≈ 0.441 to 0.883 µM)	1 to 2 µg/mL (≈ 1.77 to 3.53 µM)	0.25 to 0.5 µg/mL (≈ 0.441 to 0.883 µM)	1 to 2 µg/mL (≈ 1.77 to 3.53 µM)	–	–	–
CCN1CCN(C(=O)N[C@@H](C(=O)N[C@H]2Cc3cccc(C(=O)O)c3OB2O)c2ccc(O)c(O)c2)C(=O)C1=O [Example 39, (R)-3-((R)-2-(3,4-dihydroxyphenyl)-2-(4-ethyl-2,3-dioxopiperazine-1-carboxamido)acetamido)-2-hydroxy-3,4-dihydro-2H-benzo[e][1,2]oxaborinine-8-carboxylic acid]	–	0.25 to 0.5 µg/mL (≈ 0.463 to 0.925 µM)	1 to 2 µg/mL (≈ 1.85 to 3.7 µM)	< 0.125 µg/mL	1 to 2 µg/mL (≈ 1.85 to 3.7 µM)	–	–	MIC (E. coli AG100): 8 to 16 µg/mL; MIC (E. coli ATCC 25922; ATCC25922, E. coli ATCC 25922, broth microdilution, read-out: MIC E. coli 25922): 8 to 16 µg/mL; MIC (E. coli 901C): 0.5 to 1 µg/mL; MIC (E. coli AG100A): 2 to 4 µg/mL; MIC (K. pneumoniae UMM): 8 to 16 µg/mL
C[C@@H](O)[C@@H](NC(=O)N1CCN(CCF)C(=O)C1=O)C(=O)N[C@H]1Cc2cc(O)c(O)c(C(=O)O)c2OB1O [Example 94, (R)-3-((2R,3R)-2-(4-(2-fluoroethyl)-2,3-dioxopiperazine-1-carboxamido)-3-hydroxybutanamido)-2,6,7-trihydroxy-3,4-dihydro-2H-benzo[e][1,2]oxaborinine-8-carboxylic acid]	–	–	–	–	–	> 500 µM	128 to 256 mg/L (≈ 243 to 486 µM)	–
CCN1CCN(C(=O)N[C@H](CNS(C)(=O)=O)C(=O)N[C@H]2Cc3cccc(C(=O)O)c3OB2O)C(=O)C1=O [Example 83, (R)-3-((R)-2-(4-ethyl-2,3-dioxopiperazine-1-carboxamido)-3-(methylsulfonamido)propanamido)-2-hydroxy-3,4-dihydro-2H-benzo[e][1,2]oxaborinine-8-carboxylic acid]	–	–	–	–	–	> 500 µM	32 to 64 mg/L (≈ 59.3 to 119 µM)	–
CCN1CCN(C(=O)N[C@@H](C(=O)N[C@H]2Cc3cc(O)c(O)c(C(=O)O)c3OB2O)[C@H](C)O)C(=O)C1=O [Example 96, (R)-3-((2R,3S)-2-(4-ethyl-2,3-dioxopiperazine-1-carboxamido)-3-hydroxybutanamido)-2,6,7-trihydroxy-3,4-dihydro-2H-benzo[e][1,2]oxaborinine-8-carboxylic acid]	–	–	–	–	–	> 500 µM	128 to 256 mg/L (≈ 252 to 504 µM)	–
CCN1CCN(C(=O)NC(C(=O)N[C@H]2Cc3ccc(Cl)c(C(=O)O)c3OB2O)c2csc(N)n2)C(=O)C1=O (stereo partly drawn) [Example 215, (3R)-3-(2-(2-aminothiazol-4-yl)-2-(4-ethyl-2,3-dioxopiperazine-1-carboxamido)acetamido)-7-chloro-2-hydroxy-3,4-dihydro-2H-benzo[e][1,2]oxaborinine-8-carboxylic acid]	30 to 500 µM	0.25 to 0.5 µg/mL (≈ 0.443 to 0.885 µM)	4 to 8 µg/mL (≈ 7.08 to 14.2 µM)	1 to 2 µg/mL (≈ 1.77 to 3.54 µM)	4 to 8 µg/mL (≈ 7.08 to 14.2 µM)	–	–	–
CCN1CCN(C(=O)N[C@@](C)(C(=O)N[C@H]2Cc3cccc(C(=O)O)c3OB2O)c2csc(N)n2)C(=O)C1=O [Example 97, (R)-3-((R)-2-(2-aminothiazol-4-yl)-2-(4-ethyl-2,3-dioxopiperazine-1-carboxamido)propanamido)-2-hydroxy-3,4-dihydro-2H-benzo[e][1,2]oxaborinine-8-carboxylic acid]	–	–	–	–	–	> 500 µM	128 to 256 mg/L (≈ 235 to 470 µM)	–
CCN1CCN(C(=O)NC(C(=O)N[C@H]2Cc3cccc(C(=O)O)c3OB2O)c2ncc(OC(C)=O)cc2F)C(=O)C1=O (stereo partly drawn) [Example 207, (3R)-3-(2-(5-acetoxy-3-fluoropyridin-2-yl)-2-(4-ethyl-2,3-dioxopiperazine-1-carboxamido)acetamido)-2-hydroxy-3,4-dihydro-2H-benzo[e][1,2]oxaborinine-8-carboxylic acid]	–	< 0.125 µg/mL	0.25 to 0.5 µg/mL (≈ 0.427 to 0.854 µM)	< 0.125 µg/mL	1 to 2 µg/mL (≈ 1.71 to 3.42 µM)	–	–	MIC (E. coli AG100): 8 to 16 µg/mL; MIC (E. coli ATCC 25922; ATCC25922, read-out: MIC E. coli 25922): 8 to 16 µg/mL; MIC (K. pneumoniae 848844): 32 to 64 µg/mL; MIC (E. coli 901C): < 0.25 µg/mL; MIC (E. coli D22): 0.5 to 1 µg/mL; MIC (E. coli AG100A): 0.5 to 1 µg/mL; MIC (K. pneumoniae UMM): 8 to 16 µg/mL; MIC (K. pneumoniae SI-117): 32 to 64 µg/mL
